Measurements: patent publication US20250250251A1, “PIPERIDINYLPYRIDINYLCARBONITRILE DERIVATIVES AS INHIBITORS OF GLUTAMINYL-PEPTIDE CYCLOTRANSFERASE AND GLUTAMINYL-PEPTIDE CYCLOTRANSFERASE LIKE PROTEIN” (Boehringer Ingelheim International GmbH, priority 2024, published 2025)

Experiments:
[1] = test system: SIRPα signalling induced by Raji cells; assay: Assay B: SIRPα signalling assay using Raji cells; type: cell-based; settings: Homo sapiens, Table 5, prior art compounds, read-out: Inhibition of SIRPα signalling induced by Raji cells: IC50
In short: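 SIRPα signalling induced by Raji cells in a PathHunter reporter line, read as β-galactosidase complementation luminescence. Detection reagent 1 added for 15 min, then reagent 2 for 60 min in the dark, both at room temperature.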

[2] = test system: SIRPα signalling induced by A549 cells; assay: Assay B: SIRPα signalling assay using A549 cells; type: cell-based; settings: Homo sapiens, Table 5, prior art compounds, read-out: Inhibition of SIRPα signalling induced by A549 cells: IC50
In short: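 Raji or A549 cells (5000/well) were each incubated with serially diluted compound for 48 h at 37 °C. Jurkat PathHunter SIRPαV1 reporter cells (15000/well) were then added for 5 h. Beta-galactosidase luminescence gave IC50 via a 4-parameter sigmoidal fit.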

IC50 [1]: 132 nM
IC50 [2]: 56 nM
Compound: Cn1cnnc1C1CCN(c2c(-c3ccnnc3)ccc(Cl)c2C#N)CC1 [Compound 33, reference compound]
